Data published in patent US9682028B2, “Personal care photoprotective compositions with tricyclodecane amides” (Conopco, Inc., priority 2013, dated 2017).
Read-outs that look alike come from different tables or passages of the source.

How the values were obtained:
human sebocytes = test: Sebocyte assay (sebum suppression, 14C-acetate incorporation); type: cell-based; settings: for inhibition at 10 µM: read-out: % Reduction at 10 microMolar; for inhibition at 100 µM: read-out: % Reduction at 100 microMolar
Procedure: Sebum suppression effect of the tricyclodecane amides suitable for use in the present invention was investigated.
Secondary cultures of human sebocytes obtained from an adult […] were grown in 96-well tissue culture plates (Packard) until three days post-confluence. Sebocyte growth medium consisted of Clonetics Keratinocyte Basal Medium (KBM) supplemented with 14 μg/ml bovine pituitary extract, 0.4 μg/ml hydrocortisone, 5 μg/ml insulin, 10 ng/ml epidermal growth factor, 1.2×10^−10 M cholera toxin, 100 units/ml penicillin, and 100 μg/ml streptomycin. All cultures were incubated at 37° C. in the presence of 5% CO2. Medium was changed three times per week.
On the day of experimentation, the growth medium was removed and the sebocytes washed three times with sterile Dulbecco's Modified Eagle Medium (DMEM; phenol red free). Fresh DMEM was added to each sample (triplicates) with 5-microliters of test agent solubilized in ethanol. Controls consisted of addition ethanol alone. Each plate was returned to the incubator for 20-hours followed by the addition of ^14C-acetate buffer (5 mM final concentration, 56 mCi/mmol specific activity). Sebocytes were returned to the incubator for 4-hours after which each culture was rinsed 3-times with phosphate buffered saline to remove unbound label. Radioactive label remaining in the sebocytes was determined using a Packard Microbeta, scintillation counter. Phenol Red, a known sebum suppressive agent, was employed as a positive control.

[1] = In vitro SPF evaluation (Optometric 290S SPF meter, PMMA plate); type: physicochemical; settings: summary of Table 2
Procedure: SPF, UV-A, and UV-B improvement of compositions within the scope of the invention was investigated.
In vitro SPF measurement was done using the Optometric 290S SPF meter. The product was applied at a dosage of 2 mg/cm^2 on PMMA (polymethylmethacrylate) plate (7 cm×7 cm) and allowed to air dry for 30 minutes. The average SPF value was obtained from 6 SPF readings per plate. Two duplicated runs, the standard deviation from the average was ±2 SPF units. % increase of in vitro SPF versus control calculation: (measured SPF for selected formulation−measured SPF of control)/measured SPF of control×100.

[2] = In vitro MPF evaluation (monochromatic protection factor); type: physicochemical; settings: summary of Table 4
Procedure: MPF=monochromatic protection factor=1/Transmittance at a specific wavelength (lower transmittance gives higher MPF therefore higher absorption for the sunscreen). 305 nm=UVB, 360 nm=UVA. MPF was measured using the same apparatus as SPF above. MPF % increase over control (measured MPF at 305 nm and 360 nm for selected formulation−measured MPF at 305 nm and 360 nm of control)/measured MPF at 305 nm and 360 nm of control×100.

[3] = 10 microMolar test agent, 20 h incubation then 4 h 14C-acetate, radioactive label remaining in sebocytes
[4] = 100 microMolar test agent, 20 h incubation then 4 h 14C-acetate, radioactive label remaining in sebocytes

Compound | inhibition at 10 µM (human sebocytes; [3]) [%] | inhibition at 100 µM (human sebocytes; [4]) [%] | also measured
CC1CCCCN1C(=O)C12CC3CC(CC(C3)C1)C2 (stereo not drawn) [Compound C12, Methanone, (2-methyl-1-piperidinyl)tricyclo[3.3.1.1^3,7]dec-1-yl-] |  |  | inhibition at 10 µM (human sebocytes): 24.5%; inhibition at 100 µM (human sebocytes): 51%
N#CC1CCN(C(=O)C23CC4CC(CC(C4)C2)C3)CC1 [Compound C6, Methanone, (4-cyano-piperidinyl)tricyclo[3.3.1.1^3,7]dec-1-yl] | 24.8 | 39.4 | 
O=C(N1CCC2CCCCC2C1)C12CC3CC(CC(C3)C1)C2 (stereo not drawn) [Compound C9, Methanone, (decahydroisoquinolinyl)tricyclo[3.3.1.1^3,7]dec-1-yl-] | 81.2 | 86.8 | 
CC1CCN(C(=O)C23CC4CC(CC(C4)C2)C3)CC1 [Compound C13, Methanone, (4-methyl-1-piperidinyl)tricyclo[3.3.1.1^3,7]dec-1-yl] | 63.5 | 90.4 | 
CCC1(CC)CCN(C(=O)C23CC4CC(CC(C4)C2)C3)C1 [Compound C17, Methanone, (3,3-diethyl-pyrrolidinyl)tricyclo[3.3.1.1^3,7]dec-1-yl-] | 32.2 | 65.2 | 
O=C(NC12CC3CC(CC(C3)C1)C2)C12CC3CC(CC(C3)C1)C2 [Compound C8, Methanone, (Tricyclo[3.3.1.1^3,7]decanyl)-N-tricyclo[3.3.1.1^3,7]dec-1-yl-] | 19.1 | 58.8 | 
NC(=O)C1CCN(C(=O)C23CC4CC(CC(C4)C2)C3)CC1 [Compound C7, Methanone, (4-amido-piperidinyl)tricyclo[3.3.1.1^3,7]dec-1-yl-] | 58.9 | 73.4 | 
O=C(N1CCC1)C12CC3CC(CC(C3)C1)C2 [Compound C4, Methanone, (azetidinyl)tricyclo[3.3.1.1^3,7]dec-1-yl-] |  |  | inhibition at 10 µM (human sebocytes): 16.3%; inhibition at 100 µM (human sebocytes): 27.9%
CCCCCCCCCCCCCCCCCC(N)=O [octadecanamide] |  |  | SPF protection improvement (in words) [1]: did not achieve these improvements; UV-A and UV-B protection improvement (in words) [2]: did not achieve these improvements
CC(C)N(C(=O)C12CC3CC(CC(C3)C1)C2)C(C)C [Compound C18, Methanone, (N,N-diisopropyl)tricyclo[3.3.1.1^3,7]dec-1-yl-] |  |  | inhibition at 10 µM (human sebocytes): 42%; inhibition at 100 µM (human sebocytes): 52.5%
O=C(N1CCCCC1)C12CC3CC(CC(C3)C1)C2 [Compound C2, Methanone, (piperidiny)tricyclo[3.3.1.1^3,7]dec-1-yl-] | 34.3 | 51.6 | 
O=C(N1CCCCCC1)C12CC3CC(CC(C3)C1)C2 [Compound C5, Methanone, (hexahydroazepinyl)tricyclo[3.3.1.1^3,7]dec-1-yl-] | 32.4 | 50.5 | 
CC(C)(C)CC(C)(C)NC(=O)C12CC3CC(CC(C3)C1)C2 [Compound C21, Methanone, (1,1-dimethyl-3,3-dimethylbutylaminyl)tricyclo[3.3.1.1^3,7]dec-1-yl-] | 26.4 | 43.5 | 
CC(C)CC(C)NC(=O)C12CC3CC(CC(C3)C1)C2 (stereo not drawn) [Compound C22, Methanone, (1,3-dimethyl-butylaminyl)tricyclo[3.3.1.1^3,7]dec-1-yl-] |  |  | inhibition at 10 µM (human sebocytes): 29.1%; inhibition at 100 µM (human sebocytes): 45.3%
O=S1(=O)OC(c2ccc(O)cc2)(c2ccc(O)cc2)c2ccccc21 [Phenol Red, reference compound] | 17.1 | 65.1 | 
CC(C)(C)CCNC(=O)C12CC3CC(CC(C3)C1)C2 [Compound C19, Methanone, (3,3-dimethylbutylaminyl)tricyclo[3.3.1.1^3,7]dec-1-yl-] | 35.9 |  | 
CC1CC(C)CN(C(=O)C23CC4CC(CC(C4)C2)C3)C1 (stereo not drawn) [Compound C15, Methanone, (3,5-dimethyl-1-piperidinyl)tricyclo[3.3.1.1^3,7]dec-1-yl-] | 40.1 | 71 | 
O=C(N1CCOCC1)C12CC3CC(CC(C3)C1)C2 [Compound C1, Methanone, (morphonyl)tricyclo[3.3.1.1^3,7]dec-1-yl-] | 35.4 | 78.5 | 
CC1(C)CCCN(C(=O)C23CC4CC(CC(C4)C2)C3)C1 [Compound C11, Methanone, (3,3-dimethyl-1-piperidinyl)tricyclo[3.3.1.1^3,7]dec-1-yl] | 39.3 | 76.6 | 
CC1CCCN(C(=O)C23CC4CC(CC(C4)C2)C3)C1 (stereo not drawn) [Compound C14, Methanone, (3-methyl-1-piperidinyl)tricyclo[3.3.1.1^3,7]dec-1-yl] |  |  | inhibition at 10 µM (human sebocytes): 52.8%; inhibition at 100 µM (human sebocytes): 76%
CCC1(C)CCN(C(=O)C23CC4CC(CC(C4)C2)C3)CC1 [Compound C16, Methanone, (4-methyl-4-ethy-piperidinyl)tricyclo[3.3.1.1^3,7]dec-1-yl-] | 49.8 | 80.7 | 
O=C(N1CCCC2CCCCC21)C12CC3CC(CC(C3)C1)C2 (stereo not drawn) [Compound C10, Methanone, (decahydroquinolinyl)tricyclo[3.3.1.1^3,7]dec-1-yl-] | 63.4 | 89.6 | 
CC(C)(C)CNC(=O)C12CC3CC(CC(C3)C1)C2 [Compound C20, Methanone, (2,2-dimethylpropylaminyl)tricyclo[3.3.1.1^3,7]dec-1-yl-] | 49.5 | 82.8 | 
